Test results reported in US20260297042A1, “BIARYLAMIDE DERIVATIVES AND THEIR USE AS PKMYT1 INHIBITORS” (CANCER RESEARCH TECHNOLOGY LIMITED, priority 2023, published 2026).

Key:
Human PKMYT1 = molecular target: T1, Human PKMYT1 (Homo sapiens, UniProt Q99640); assay: PKMYT1 biochemical ADP-Glo enzymatic assay; details: ADP-Glo; 15 nM PKMYT1 kinase domain, 500 µM ATP, 60 minutes at 26° C.; banded
T1 construct: Human PKMYT1 75-362 was cloned as a TEV cleavable 6xHis fusion; 6xHis (TEV cleavable) (cleaved yes); made in house; host or cells: bacterial cells
T1 sequence (Q99640 75-362): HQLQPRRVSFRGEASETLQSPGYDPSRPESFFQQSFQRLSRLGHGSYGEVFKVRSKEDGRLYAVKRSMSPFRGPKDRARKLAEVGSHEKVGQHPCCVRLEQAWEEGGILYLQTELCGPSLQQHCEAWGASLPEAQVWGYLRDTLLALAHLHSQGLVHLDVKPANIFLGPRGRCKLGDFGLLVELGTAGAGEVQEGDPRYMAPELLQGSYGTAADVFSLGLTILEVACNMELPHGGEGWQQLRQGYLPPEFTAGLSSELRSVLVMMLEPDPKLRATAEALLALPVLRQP
Procedure, shortened: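 Measures inhibition of PKMYT1 autonomous ATP hydrolysis: bacterially expressed human enzyme (75-362, tag cleaved) at 15 nM with 500 µM ATP for 60 min at 26 °C, then ADP-Glo Max detection. IC50s accepted only when replicates agreed within 3-fold and curve r2 exceeded 0.9.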

WEE1 = molecular target: T2, WEE1 (Homo sapiens, UniProt P30291); assay: Selectivity versus WEE1 assay (ADP-Glo enzymatic assay); format: biochemical; details: banded; for IC50: ADP-Glo, 15 nM WEE1, 60 minutes at 26° C.; for PKMYT1 vs. WEE1 selectivity: fold difference in selectivity for PKMYT1 over WEE1, ">N" = at least in this band but could be higher
T2 construct: purchased Thermo Fisher PR7373A
Procedure, shortened: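 Same format as the PKMYT1 assay: WEE1 at 15 nM final with 30 µM ATP, 60 min at 26° C, ADP-Glo luminescence detection, IC50 by dose-response fitting.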

[1] = system: h-TERT-RPE1 TP53−/− parental cells; assay: Nuclear count cell proliferation assay, parental (wild type) h-TERT-RPE1 TP53−/− cells; format: cell-based; details: hTERT-RPE1, h-TERT-RPE1 TP53−/− parental (Wt), around 6 population doublings, banded, read-out: RPE Wt GI50
Method: (§1) h-TERT-RPE1 TP53−/− and CCNE1 high expressing clones (clone cell lines 7 and 15) were treated with test compounds dissolved in DMSO at serially diluted concentrations alongside a DMSO only control for around 6 population doublings time. Cells were then fixed with 4% Paraformaldehyde and the cell nuclei were stained with DAPI (Sigma D9542). Images covering each well were acquired by an Opera Phenix® High-Content Screening System (PerkinElmer). Image analysis was performed using Harmony® high-content analysis software (PerkinElmer). Data analysis was performed using Microsoft Excel® and GI50 estimates generated with GraphPad Prism v9. Percent nuclear count was compared to vehicle control wells and used to measure inhibition of proliferation.

[2] = system: h-TERT-RPE1 TP53−/− CCNE1 high expressing clone cell line 7 (CL7); assay: Nuclear count cell proliferation assay, CCNE1 high expressing clone cell line 7 (CL7) of h-TERT-RPE1 TP53−/−; format: cell-based; details: banded; for Selectivity Ratio Wt vs. CL7: GI50 ratio RPE Wt vs. CL7, >N = at least in this band; for GI50: hTERT-RPE1, h-TERT-RPE1 TP53−/− CCNE1 high clone CL7, nuclear count, around 6 population doublings, read-out: RPE CL7 GI50
Method: as §1

OVCAR3 cells = assay: Cancer cell line proliferation assay, nuclear count, OVCAR3 (CCNE1-amplified); format: cell-based; details: banded; for Selectivity ratio KYSE30 GI50 vs. OVCAR3 GI50: >N = at least in this band; for GI50: Homo sapiens, OVCAR-3, CCNE1-amplified ovarian cancer, nuclear count
Method: as §1
(§2) Cancer cell lines with either normal (KYSE-30) or amplified CCNE1 expression (OVCAR3-ovarian cancer) were evaluated for their sensitivity to PKMYT1 inhibitors in a nuclear count assay as described above for h-TERT-RPE1 TP53−/− and a CCNE1 high expressing clones, taking into account the slower cell cycle division times of these lines.

KYSE-30 cells = assay: Cancer cell line proliferation assay, nuclear count, KYSE-30 (normal CCNE1); format: cell-based; details: Homo sapiens, normal CCNE1 expression, banded, read-out: KYSE30 GI50
Method: as §1, §2

[3] = system: h-TERT-RPE1 TP53−/− CCNE1 high expressing clone cell line 15 (CL15); assay: Nuclear count cell proliferation assay, CCNE1 high expressing clone cell line 15 (CL15) of h-TERT-RPE1 TP53−/−; format: cell-based; details: banded; for Selectivity Ratio Wt vs. CL15: GI50 ratio RPE Wt vs. CL15, >N = at least in this band; for GI50: h-TERT-RPE1 TP53−/− CCNE1 high clone CL15, nuclear count, around 6 population doublings, read-out: RPE CL15 GI50
Method: as §1

solid tumours = details: clinicaltrials.gov; cited from earlier work
[4] = system: breast and ovarian cancers overexpressing CCNE1; details: alone or in combination with Gemcitabine; Gallo et al., 2022; cited from earlier work
[5] = system: pancreatic PDX model with increased expression of CCNE1; details: alone or in combination with Gemcitabine; Gallo et al., 2022; cited from earlier work
[6] = molecular target: T3, Cellular PKMYT1 Biomarker CDK1 pT14 (Homo sapiens, UniProt Q99640); assay: Inhibition of cellular PKMYT1 biomarker CDK1 pT14 in OVCAR 3 cells (immunoblot); format: cell-based; details: 20 hours incubation
T3 construct: read-out CDK1 phospho-T14 immunoblot
T3 sequence (Q99640 1-499): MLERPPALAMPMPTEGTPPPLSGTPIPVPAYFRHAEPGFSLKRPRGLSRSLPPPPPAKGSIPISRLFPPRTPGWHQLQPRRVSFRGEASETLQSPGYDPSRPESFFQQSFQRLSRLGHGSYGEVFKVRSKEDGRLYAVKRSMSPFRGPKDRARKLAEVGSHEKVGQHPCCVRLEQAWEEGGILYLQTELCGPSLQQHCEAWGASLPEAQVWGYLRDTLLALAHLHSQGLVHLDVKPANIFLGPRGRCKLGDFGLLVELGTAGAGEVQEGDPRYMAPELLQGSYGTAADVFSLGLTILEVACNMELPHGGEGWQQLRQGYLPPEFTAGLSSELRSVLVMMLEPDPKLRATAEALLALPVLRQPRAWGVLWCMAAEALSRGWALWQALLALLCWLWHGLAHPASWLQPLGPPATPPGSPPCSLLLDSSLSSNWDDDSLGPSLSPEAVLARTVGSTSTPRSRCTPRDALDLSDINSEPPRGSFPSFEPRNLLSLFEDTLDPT
Procedure, shortened: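 Confluent OVCAR 3 cells treated with a compound concentration range for 20 h at 37 °C. Lysates analysed by automated capillary immunoblot for CDK1 phospho-T14, with vinculin, fluorescence detection; IC50 by regression.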

T2 sequence (P30291 whole entry): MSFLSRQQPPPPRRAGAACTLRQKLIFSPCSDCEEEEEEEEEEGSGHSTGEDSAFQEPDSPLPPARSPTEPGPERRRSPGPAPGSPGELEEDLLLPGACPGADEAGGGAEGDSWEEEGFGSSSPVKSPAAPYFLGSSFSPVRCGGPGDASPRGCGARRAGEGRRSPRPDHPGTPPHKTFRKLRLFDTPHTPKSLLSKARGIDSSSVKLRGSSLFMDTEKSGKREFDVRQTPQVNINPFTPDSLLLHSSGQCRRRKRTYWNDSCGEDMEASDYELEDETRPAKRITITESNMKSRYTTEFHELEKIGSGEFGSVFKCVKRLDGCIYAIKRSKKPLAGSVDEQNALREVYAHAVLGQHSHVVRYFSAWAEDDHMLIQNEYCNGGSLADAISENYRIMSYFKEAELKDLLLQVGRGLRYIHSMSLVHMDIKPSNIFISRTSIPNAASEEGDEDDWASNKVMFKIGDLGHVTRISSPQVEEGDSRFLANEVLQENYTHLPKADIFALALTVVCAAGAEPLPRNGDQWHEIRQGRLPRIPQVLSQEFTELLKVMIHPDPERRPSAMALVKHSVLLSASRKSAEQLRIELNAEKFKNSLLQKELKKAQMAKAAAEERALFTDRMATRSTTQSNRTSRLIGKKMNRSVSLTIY

Compound | IC50 (Human PKMYT1) | IC50 (WEE1) | PKMYT1 vs. WEE1 selectivity (WEE1) | GI50 [1] | Selectivity Ratio Wt vs. CL7 [2] | GI50 [2] | Selectivity ratio KYSE30 GI50 vs. OVCAR3 GI50 (OVCAR3 cells) | GI50 (OVCAR3 cells) | GI50 (KYSE-30 cells) | Selectivity Ratio Wt vs. CL15 [3] | GI50 [3] | toxicity in clinical trials (solid tumours) | efficacy in vivo [4] | efficacy in vivo [5] | IC50 [6]
CCN(CC)C(=O)Cn1ccc(Nc2ncc(C(=O)Nc3c(C)ccc(O)c3C)s2)n1 [BAA-173, 2-[[1-[2-(diethylamino)-2-oxo-ethyl]pyrazol-3-yl]amino]-N-(3-hydroxy-2,6-dimethyl-phenyl)thiazole-5-carboxamide] | < 0.05 µM | > 11 µM | Y (1000-5000 fold) | 0.5 to 3 µM | X (3-<10 fold) | < 0.5 µM | >X (3-<10 fold) | 3 to 10 µM | > 10 µM | – | – | – | – | – | –
Cc1ccc(O)c(C)c1NC(=O)c1cnc(Nc2ccn(CC(=O)N3CCN(C(=O)OC(C)(C)C)C(C)(C)C3)n2)s1 [BAA-179, tert-butyl 4-[2-[3-[[5-[(3-hydroxy-2,6-dimethyl-phenyl)carbamoyl]thiazol-2-yl]amino]pyrazol-1-yl]acetyl]-2,2-dimethyl-piperazine-1-carboxylate] | < 0.05 µM | 1 to 11 µM | X (100-<1000 fold) | 3 to 10 µM | – | – | Z (>30 fold) | < 0.5 µM | > 10 µM | Y (10-30 fold) | < 0.5 µM | – | – | – | –
C=CCn1c(=O)c2cnc(Nc3ccc(N4CCN(C)CC4)cc3)nc2n1-c1cccc(C(C)(C)O)n1 [adavosertib] | – | – | – | – | – | – | – | – | – | – | – | presented significant toxicity | – | – | –
Cc1ccc(O)c(C)c1NC(=O)c1cnc(Nc2ccn(CC(=O)N3CCCC3)n2)s1 [BAA-148, N-(3-hydroxy-2,6-dimethyl-phenyl)-2-[[1-(2-oxo-2-pyrrolidin-1-yl-ethyl)pyrazol-3-yl]amino]thiazole-5-carboxamide] | < 0.05 µM | > 11 µM | Y (1000-5000 fold) | 0.5 to 3 µM | – | – | X (3-<10 fold) | 3 to 10 µM | > 10 µM | X (3-<10 fold) | 0.5 to 3 µM | – | – | – | –
Cc1cc2c(C(N)=O)c(N)n(-c3c(C)ccc(O)c3C)c2nc1C [RP-6306] | – | – | – | – | – | – | – | – | – | – | – | – | has shown efficacy in vivo | has shown efficacy in vivo | –
Cc1ccc(O)c(C)c1NC(=O)c1cnc(Nc2cc(C(F)(F)F)n(C)n2)s1 [BAA-047] | 0.05 to 1 µM | > 11 µM | >X (100-<1000 fold) | – | – | – | X (3-<10 fold) | 0.5 to 3 µM | 3 to 10 µM | – | – | – | – | – | 0.1 to 1 µM
Cc1ccc(O)c(C)c1NC(=O)c1cnc(Nc2ccn(CC(=O)N3CC(F)(F)C(F)(F)C3)n2)s1 [BAA-181, N-(3-hydroxy-2,6-dimethyl-phenyl)-2-[[1-[2-oxo-2-(3,3,4,4-tetrafluoropyrrolidin-1-yl)ethyl]pyrazol-3-yl]amino]thiazole-5-carboxamide] | < 0.05 µM | > 11 µM | Y (1000-5000 fold) | 0.5 to 3 µM | X (3-<10 fold) | < 0.5 µM | >X (3-<10 fold) | 3 to 10 µM | > 10 µM | Y (10-30 fold) | < 0.5 µM | – | – | – | –
